Consider 1 molecule from US20240165209A1, “PLACENTAL ALKALINE PHOSPHATASE FOR REDUCING THE LOSS OF RED BLOOD CELLS, WHITE BLOOD CELLS, AND PLATELETS IN CHEMOTHERAPY TREATED CANCER PATIENTS” (ZOLTAN LABORATORIES, LLC, priority 2021, published 2024).

This assay deals with granulocyte-macrophage colony-forming units (CFU-GM). Description: Granulocyte-macrophage colony-forming units (CFU-GM), semisolid colony-forming cell assay, Cyp treated T47D tumor bearing mice. The assay is classed as in vivo, mouse. Conditions: for CFU-GM/10^5 nucleated BM cells: Cyp 120 mg/kg i.p. daily x6, PLAP 7.5 mg/kg s.c. days 0, 2, 4, 6; for CFU-GM per femur: calculated: nucleated cells in the femur x CFU-GM. On the procedure: Again, first-generation hybrid BDF1 (C57BL/6 female×DBA/2 male) 10 weeks old adult female mice bearing T47D tumors (2.6-3.3 cm^3) were used. In the first group, mice received no treatment. In the second and third groups, mice were administered 120 mg/kg of Cyp intraperitoneally once a day for 6 consecutive days. In a third group, mice were also administered 7.5 mg/kg of PALP subcutaneously on days 0, 2, 4 and 6. On the days indicated in TABLE 4, the animals were killed, then the bone marrow was flushed from the femurs with Iscove's modified Dulbecco's medium (Gibco BRL, Gaithersburg, MD, USA). This was followed by standard erythrocyte lysis and then by counting the number of nucleated bone marrow (BM) cells per femur using a hemocytometer.
To measure the formation of the granulocyte-macrophage colony-forming units (CFU-GM), a semisolid colony-forming cell assay was used. Equal numbers of nucleated bone marrow cells (isolated on days as indicated above) were plated in 35-mm Petri dishes (Costar, Cambridge, MA, USA) in Iscove's modified Dulbecco's medium supplemented with 1% methylcellulose, 30% horse serum (Gibco), 10% WEHI-3B conditioned medium as a source of growth factors, 4 mM L-glutamine, 0.25 mM α-thioglycerol (Gibco), 1% deionized bovine serum albumin (Sigma), and antibiotics (Gibco). Cells were cultured at 37° C. in 5% CO2/95% air atmosphere. CFU-GM was counted on day 9. Three parallel plates were used for each 3 animals (9 plates for one number). Colonies containing at least 50 cells were counted which is a generally accepted value in the literature. In TABLE 4, “CFU-GM per femur” is a calculated value derived from multiplying the number of nucleated cells in the femur with the number of CFU-GM; this number gives the number of CFU-GM in one femur. Each value is expressed as the mean±standard deviation of 9 plates (derived from 3 animals).

Each structure is given as a SMILES string.

Consider `O.O=P1(N(CCCl)CCCl)NCCCO1` (centres unmarked) [Cyp, 2-[Bis (2-chloroethyl)amino] tetrahydro-2H-1,3,2-oxazaphosphorine 2-oxide monohydrate], for which the “CFU-GM/10^5 nucleated BM cells” value is, setting by setting: (BM isolated day 0) 78.1 ± 6.1; (BM isolated day 3) 34.5 ± 7.2; (BM isolated day 6) 25.8 ± 4.4; (BM isolated day 9) 98.5 ± 8.0. Moreover, the CFU-GM per femur reads like this: (day 0) 1,101; (day 3) 321; (day 6) 80; (day 9) 482.
